Laboratory results published in US11246858B2, “Immunoresponsive methods of treating tumors” (Institut Pasteur de Montevideo, priority 2017, dated 2022).
* marks the point of attachment. Cbz = O=C(OCc1ccccc1)*; CH2F = FC*

Columns and labels:
IL-1β secretion = IL-1β secretion by LPS-primed, stimulated WT and TORID KO BMDCs (ELISA); assay type: cell-based, mouse; settings: for IL-1β secretion: WT and TORID KO BMDCs primed with LPS, stimulated with ATP
Description: The study shown in FIG. 8 was performed by priming WT and TORID KO mice bone marrow-derived dendritic cells (BMDCs) with 0.25 μg/mL lipopolysaccharide (LPS) for four hours. The BMDCs were then washed and treated with different doses of ATP, Nigericin, and aluminum for 45 minutes as shown in the left column of bar graphs. Alternatively, 0.5 mg/mL ATP, 2.5 μg/mL Nigericin, or 500 μg/mL aluminum were used at different time points as indicated in the right column of bar graphs. IL-1β was quantified by ELISA in the culture supernatant.
The experiment was performed on wildtype and TORID KO mice BMDCs primed with LPS for 3 hours. The BMDCs were subsequently treated with nigericin, ATP, or aluminum for 45 minutes. […] Caspase 1 activation was quantified by FACS using Flica 1 reagent. […] Z-WEHD-FMK was used as the caspase 1 inhibitor, and IL-1β levels were quantified by ELISA in the supernatant of the cell culture stimulated with the indicated compounds.
Inflammasome activation is also associated with an increase of cytosolic Ca^2+. […] Data in this study was generated by loading Ca^2+ sensitive probe Fura-2 in wild type and TORID KO mice BMDCs after priming the BMDCs for three hours with LPS. The cells were exposed to 0.5 mM ATP to elicit inflammasome activation. The cells were excited with a UV laser at 350 nm. Absorbance at 340 nm and 380 nm were recorded in a time lapse manner. As shown in the top illustrations, the TORID KO BMDCs show a higher level of cytosolic Ca^2+. Moreover, IL-1β levels were higher with the TORID KO BMDCs. BAPTA-AM was used to chelate cytosolic Ca^2+.
Potassium (K^+) efflux is also linked to inflammasome activation. In the study shown in FIG. 11, IL-1β synthesis resulting from K^+ was tested. This study was performed on wild type and TORID KO mouse BMDCs treated with LPS and ATP as in the previously described studies herein. Culture medium was replaced by saline buffer containing normal low levels of K^+ (5 mM, K+) or high levels of K^+ (120 mM; K+++). IL-1β was quantified by ELISA in the culture supernatant. As shown in the top graph of FIG. 11, IL-1β levels were higher in the TORID KO mice. […] The results therefore support pharmacological use of TIs to promote inflammasome activation by triggering Ca^2+-activated K^+ channels.

EG7.OVA cells = test: EG7.OVA tumor in caspase 1/11 active and caspase 1/11 KO mice treated with BAY K8644; assay type: in vivo; settings: 4 mg/kg i.p. daily day 3 to day 15
Excerpt: FIG. 17 further confirms the results from FIG. 16 and the proposed mechanism depicted in FIG. 6. Data shown in FIG. 17 was gathered from caspase 1/11 active mice (1/11^+/+) and caspase 1/11 KO mice (1/11^−/−) injected with EG7.OVA cells.

TORID = TORID activity by ANG-2 probe fluorescence (flow cytometry) in transfected CHO cells; assay type: cell-based
Description: As shown in FIG. 14 Chinese hamster ovarian (CHO) cells were transfected with TORID and Tmem176a and incubated for 24 hours. The cells were subsequently loaded with ANG-2 probe for 30 min RT, washed, and then incubated with (+)-BAY […] or (i)-BAY […] for 30 min. The cells were then analyzed by flow cytometry to evaluate TORID activity. Activity was measured by comparing fluorescence of the ANG-2 probe in TORID+ cells incubated with BAY […] (blue) to the control (red). TORID activity measure as the ANG-2 mean fluorescent intensity (MFI) in normal medium 0(-), 5(+), or 10(++) uM. […] FIG. 15 illustrates analysis of the ANG-2 mean fluorescent intensity (MFI) in normal medium of TORID exposed to BAY […] concentrations of 0 uM (-), 5 uM (+) or 10 uM (++). […] In all cases fluorescence intensity from ANG-2-loaded cells cultured in […] buffer was subtracted.

EG7 and MC38 tumors = test: Survival of mice with EG7 and MC38 tumors treated with anti-PD-1 alone or anti-PD-1+Bayk8644; assay type: in vivo; settings: anti-PD-1 resistant mice; two tumor types (EG7, MC38); anti-PD-1+BAY K8644 vs anti-PD-1 alone
EG7.OVA cancer cells = test: EG7.OVA tumor-bearing wild type mice treated with BAY K8644; assay type: in vivo; settings: EG7.OVA s.c., i.p. daily day 3 to day 15, vs control vehicle
Description: Data from in vivo studies depicted in FIG. 16 confirm the effect of pharmacologic inhibition of TORID on tumor growth. The study was performed on wild type mice injected subcutaneously with EG7.OVA cancer cells. Three days after inoculating the wild type mice with EG7.OVA tumor cells, Bay K8644 or a control vehicle, such as ethanol, were injected intraperitoneally daily up to the fifteenth day after tumor cell inoculation.

## iberiotoxin: BKCa KCa1.1 specific inhibitor (QFTDVDCSVSKECWSVCKDLFGVDRGKCMGKKCRCYQ; UniProt P24663 1-37, looked up)
IL-1β secretion
  IL-1β secretion: blocked IL-1beta secretion

## CC(=O)OCOC(=O)CN(CC(=O)OCOC(C)=O)c1ccccc1OCCOc1ccccc1N(CC(=O)OCOC(C)=O)CC(=O)OCOC(C)=O [BAPTA-AM]
IL-1β secretion
  IL-1β secretion: completely blocked IL-1β secretion

## COC(=O)C1=C(C)NC(C)=C([N+](=O)[O-])C1c1ccccc1C(F)(F)F (stereo not shown) [BAY K8644, Methyl 2,6-dimethyl-5-nitro-4-[2-(trifluoromethyl)phenyl]-1,4-dihydropyridine-3-carboxylate]
EG7.OVA cells
  overall rates of survival vs negative control group not injected: higher
  survival rate in caspase 1/11 KO vs caspase 1/11 active mice: lowered the survival rate
TORID; 0, 5 or 10 uM in normal medium, Na-free buffer signal subtracted
  TORID activity versus BAY K8644 concentration: dose proportional response
TORID; CHO cells transfected with TORID and Tmem176a, 30 min incubation, vs control
  TORID activity (ANG-2 mean fluorescent intensity): inhibits TORID activity
EG7 and MC38 tumors
  rate of survival: higher rate of survival
EG7.OVA cancer cells
  disease-free survival rates: increased

## CCN(CCO)CCCC(C)Nc1ccnc2cc(Cl)ccc12 (stereo not shown) [HCQ, hydroxychloroquine]
IL-1β secretion
  IL-1β secretion: mimicked iberiotoxin in controlling IL-1β secretion

## Cbz-WEHD-CH2F
IL-1β secretion; BMDCs primed with LPS 3 hours, then nigericin, ATP or aluminum, caspase 1 inhibition
  IL-1β levels in culture supernatant: lower levels of IL-1β
